Measured values from the supplement of paper PMC10307832.

Tests used:
Assay in all cases: relative viability (nuclei count vs DMSO), 5 days (fraction); higher = more cells survive
Tosedostat + Palbociclib = compound: CC(C)C[C@@H](C(=O)N[C@H](C(=O)OC1CCCC1)c1ccccc1)[C@H](O)C(=O)NO [Tosedostat] + CC(=O)c1c(C)c2cnc(Nc3ccc(N4CCNCC4)cn3)nc2n(C2CCCC2)c1=O [Palbociclib] (partner 0.5 µM)
Method in brief: (§1)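 Lung cancer cell lines, seeded in 1536-well plates, were treated the following day by pin tool with a single drug or with five library-drug doses (not always all listed) in √10 steps on top of a fixed anchor-drug dose. Cells were fixed and nuclei stained in one step after 5 days, and nuclei were counted. Relative viability is the nuclei count for treated wells divided by that for vehicle wells, reported as medians of duplicate plates.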

[1] = compound: CC1=NN=C(O1)C2=NN=C(C=C2)N3CCC(CC3)OC4=C(C=CC(=C4)F)Cl + Nc1ncn([C@H]2C[C@H](O)[C@@H](CO)O2)c(=O)n1 [Decitabine] (partner 2 µM)
Method in brief: as §1

[2] = compound: CC1=NN=C(O1)C2=NN=C(C=C2)N3CCC(CC3)OC4=C(C=CC(=C4)F)Cl + C[C@@H](Oc1cc(-c2cnn(C3CCNCC3)c2)cnc1N)c1c(Cl)ccc(F)c1Cl [Crizotinib] (partner 1 µM)
Method in brief: as §1

Tosedostat + AZD7762 = compound: CC(C)C[C@@H](C(=O)N[C@H](C(=O)OC1CCCC1)c1ccccc1)[C@H](O)C(=O)NO [Tosedostat] + NC(=O)Nc1cc(-c2cccc(F)c2)sc1C(=O)N[C@H]1CCCNC1 [AZD7762] (partner 0.2 µM)
Method in brief: as §1

Row | Cell Line | relative viability (Tosedostat + Palbociclib; first compound 0.02 µM) | relative viability (Tosedostat + Palbociclib; first compound 0.06325 µM) | relative viability (Tosedostat + Palbociclib; first compound 0.2 µM) | relative viability (Tosedostat + Palbociclib; first compound 0.6325 µM) | relative viability (Tosedostat + Palbociclib; first compound 2 µM) | relative viability ([1]; first compound 0.253 µM) | relative viability ([1]; first compound 0.8 µM) | relative viability ([1]; first compound 2.53 µM) | relative viability ([1]; first compound 8 µM) | relative viability ([2]; first compound 0.253 µM) | relative viability ([2]; first compound 0.8 µM) | relative viability ([2]; first compound 2.53 µM) | relative viability ([2]; first compound 8 µM) | relative viability (Tosedostat + AZD7762; first compound 0.02 µM) | relative viability (Tosedostat + AZD7762; first compound 0.06325 µM) | relative viability (Tosedostat + AZD7762; first compound 0.2 µM) | relative viability (Tosedostat + AZD7762; first compound 0.6325 µM) | relative viability (Tosedostat + AZD7762; first compound 2 µM)
1 | HARA | 0.325 | 0.255 | 0.262 | 0.232 | 0.265 | 0.414 | 0.384 | 0.357 | 0.319 | 0.747 | 0.327 | 0.271 | 0.294 | 0.41 | 0.459 | 0.261 | 0.477 | 0.262
2 | NCI-H2347 | 0.411 | 0.451 | 0.407 | 0.494 | 0.4 | 0.544 | 0.593 | 0.568 | 0.471 | 0.734 | 0.522 | 0.646 | 0.607 | 0.631 | 0.821 | 0.863 | 0.745 | 0.682
3 | NCI-H1651 | 0.528 | 0.525 | 0.511 | 0.553 | 0.535 | 0.486 | 0.46 | 0.451 | 0.391 | 0.753 | 0.659 | 0.656 | 0.669 | 0.458 | 0.486 | 0.588 | 0.439 | 0.384
4 | ChaGo-K-1 | 1.01 | 0.907 | 0.87 | 0.858 | 0.671 | 0.392 | 0.465 | 0.391 | 0.374 | 0.76 | 0.669 | 0.721 | 0.694 | 0.957 | 0.889 | 0.81 | 0.767 | 0.603
5 | PC-3 [JPC-3] | 0.538 | 0.547 | 0.554 | 0.493 | 0.555 | 0.774 | 0.747 | 0.801 | 0.732 | 0.754 | 0.791 | 0.818 | 0.75 | 0.752 | 0.747 | 0.746 | 0.647 | 0.54
6 | LK-2 | 0.768 | 0.702 | 0.721 | 0.739 | 0.909 | 0.401 | 0.279 | 0.325 | 0.315 | 0.216 | 0.246 | 0.24 | 0.259 | 0.459 | 0.475 | 0.381 | 0.354 | 0.617
7 | 201T | 0.362 | 0.367 | 0.372 | 0.38 | 0.377 | 0.459 | 0.647 | 0.445 | 0.43 | 0.456 | 0.504 | 0.499 | 0.484 | 0.592 | 0.668 | 0.669 | 0.584 | 0.576
8 | HCC-44 | 1.05 | 0.982 | 1.01 | 0.983 | 0.928 | 0.44 | 0.413 | 0.436 | 0.425 | 0.451 | 0.392 | 0.431 | 0.373 | 1.08 | 1 | 1.03 | 1.06 | 0.965
9 | NCI-H838 | 0.243 | 0.219 | 0.216 | 0.261 | 0.256 | 0.467 | 0.463 | 0.442 | 0.451 | 0.643 | 0.679 | 0.731 | 0.683 | 0.999 | 0.928 | 0.893 | 0.973 | 1
10 | H3255 | 0.303 | 0.32 | 0.342 | 0.331 | 0.319 | 0.484 | 0.525 | 0.464 | 0.564 | 0.548 | 0.646 | 0.538 | 0.625 | 1.04 | 0.919 | 0.953 | 0.81 | 0.746
11 | PC-14 | 0.583 | 0.469 | 0.502 | 0.447 | 0.444 | 0.19 | 0.226 | 0.177 | 0.23 | 0.747 | 0.636 | 0.713 | 0.739 | 0.434 | 0.352 | 0.314 | 0.273 | 0.0971
12 | NCI-H322M | 0.466 | 0.473 | 0.459 | 0.524 | 0.455 | 0.812 | 0.709 | 0.682 | 0.643 | 0.762 | 0.792 | 0.899 | 0.886 | 0.648 | 0.56 | 0.641 | 0.613 | 0.567
13 | NCI-H1944 | 0.315 | 0.356 | 0.386 | 0.32 | 0.377 | 0.306 | 0.288 | 0.321 | 0.309 | 0.448 | 0.54 | 0.566 | 0.529 | 0.659 | 0.494 | 0.501 | 0.437 | 0.453
14 | NCI-H727 | 0.715 | 0.637 | 0.617 | 0.645 | 0.597 | 0.916 | 0.873 | 0.905 | 0.862 | 0.725 | 0.901 | 0.672 | 0.683 | 0.667 | 0.559 | 0.65 | 0.669 | 0.53
15 | EKVX | 0.368 | 0.374 | 0.403 | 0.396 | 0.389 | 0.292 | 0.261 | 0.309 | 0.225 | 0.369 | 0.313 | 0.311 | 0.393 | 0.821 | 0.71 | 0.747 | 0.761 | 0.657
16 | NCI-H358 | 0.141 | 0.134 | 0.131 | 0.137 | 0.136 | 0.19 | 0.212 | 0.197 | 0.181 | 0.522 | 0.403 | 0.509 | 0.466 | 0.71 | 0.471 | 0.434 | 0.317 | 0.34
17 | EPLC-272H | 0.337 | 0.311 | 0.348 | 0.303 | 0.248 | 0.361 | 0.366 | 0.4 | 0.374 | 0.877 |  | 0.926 | 1.03 | 0.248 | 0.232 | 0.267 | 0.153 | 0.192
